Results: patent US5217986A, “Anti-allergy agent” (Harbor Branch Oceanographic Institution, Inc., priority 1992, dated 1993)

Key:
H3 receptor = molecular target: T1, H3 receptor (Cavia porcellus, UniProt Q9JI35); assay: H3 receptor binding assay ([3H]R-α-methylhistamine, guinea pig brain membranes)
T1 construct: The source of the H3 receptors in this experiment was guinea pig brain; from tissue; host or cells: guinea pig brain membranes
Procedure: The source of the H3 receptors in this experiment was guinea pig brain. The animals used weighed 400-600 g. The tissue was homogenized using a Polytron in a solution of 50 mM Tris, pH 7.5. The final concentration of tissue in the homogenization buffer was 10% w/v. The homogenates were centrifuged at 1000× g for 10 minutes in order to remove clumps of tissue and debris. The resulting supermatants were then centrifuged at 50,000× g for 20 minutes in order to sediment the membranes, which were next washed 3 times in homogenization buffer (50,000× g for 20 minutes each). The membranes were frozen and stored at -70° C. until needed.
The compound to be tested was dissolved in DMSO (dimethyl sulfoxide) and then diluted into the binding buffer (50 mM Tris, pH 7.5) such that the final concentration was 2 μg/mL with 0.1% DMSO. Membranes were then added (400 μg of protein) to the reaction tubes. The reaction was started by the addition of 3 nM [^3 H]R-α-methylhistamine (8.8 Ci/mmol) and incubated at 30° C. for 30 minutes. Bound ligand was separated from unbound ligand by filtration, and the amount of radioactive ligand bound to the membranes was quantitated by liquid scintillation spectrometry. The incubation was performed in duplicate and the standard error was less than 10%.

guinea pig ileum = assay: Guinea pig ileum assay (inhibition of Rα-methylhistamine effect on electrical field stimulated contractions)
Procedure: Male guinea pigs (450-500 g) were sacrificed by cervical dislocation. Portions of the ileum (20-40 cm) were removed and placed in Tyrodes solution (NaCl, 8.0; KCl, 0.2; MgCl2.6H2 O, 0.2; CaCl2, 0.13; NaH2 PO4, 0.06; dextrose, 1.0; NaHCO3, 1.0 g/l). The ilea were cut into 2.5 cm segments, mounted between platinum wire coaxial electrodes and placed in water-jacketed organ baths containing 25 ml of the Tyrodes solution. Bath fluid temperature was maintained at 37° C. and aerated with 95% 02-5% CO2. The muscles were suspended from isometric force transducers (Grass FT03C) under 0.3 g resting tension. Contractions were amplified on a Buxco tension monitor and recorded on a Harvard polygraph. […] Once this 80% response was determined it was evoked every 60 seconds throughout the experiment. […]
Rα-methylhistamine inhibits the electrical field stimulated contractions of the guinea pig ileum and was used as the H3 agonist reference standard. H3 agonists were studied for their ability to inhibit the electrical field stimulated contractions and their activity was expressed as a percentage of the maximum Rα-methylhistamine effect. […]
Relative potency for agonists was determined from the pD2 (Furchgott, R. F., The pharmacology of Vascular Smooth Muscle. Pharm. Rev. 7, 183, 1955.) calculations. Relative potency for antagonists was determined from pA2 calculations. […]

T1 sequence (Q9JI35 whole entry): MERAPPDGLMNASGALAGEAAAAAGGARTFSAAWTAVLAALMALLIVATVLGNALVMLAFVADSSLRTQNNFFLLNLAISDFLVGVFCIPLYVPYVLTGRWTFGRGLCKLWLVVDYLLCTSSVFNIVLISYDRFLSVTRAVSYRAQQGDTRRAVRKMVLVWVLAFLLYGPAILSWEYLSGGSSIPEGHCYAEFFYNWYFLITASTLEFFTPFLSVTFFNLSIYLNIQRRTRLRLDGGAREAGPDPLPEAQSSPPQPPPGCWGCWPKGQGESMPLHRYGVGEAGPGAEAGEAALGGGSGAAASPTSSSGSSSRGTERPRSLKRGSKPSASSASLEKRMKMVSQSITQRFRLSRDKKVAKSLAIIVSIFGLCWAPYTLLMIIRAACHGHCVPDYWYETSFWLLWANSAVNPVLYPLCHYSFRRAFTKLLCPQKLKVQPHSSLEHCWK

## COc1ccc(CC(=NO)C(=O)NCCc2c[nH]cn2)cc1Br [verongamine]
H3 receptor; guinea pig brain membranes, 3 nM [3H]R-α-methylhistamine, 30° C., 30 minutes, pH 7.5
  IC50: 498 nM
H3 receptor; no concentration stated
  activity in an H3 receptor assay: active
Guinea pig ileum; @ 1 μg/mL, 1 μM chlorpheniramine present, 37° C.
  Guinea Pig Ileum: antagonist
Guinea pig ileum; no concentration stated
  activity on guinea pig ileum: H3 antagonist
